The series can be described thus: Purity and stability test (content of impurities on storage). The format is physicochemical. Particulars: for Content of impurities in the initial sample: before storage; for 0-8° C., content of impurities in the sample at 7 day: sealed containers at 0-8° C. for 7 days. As for the experimental part: In this example, the purity and stability of the samples obtained in Comparative Examples and Examples were compared. The specific method is described as follows:
And then the content of impurities in each sample was analyzed.

We go through 7 compounds from patent US9580470B2, “High-purity cyclopeptide crystal as well as preparation method and use thereof” (SHANGHAI TECHWELL BIOPHARMACEUTICAL CO., LTD., priority 2012, dated 2017).

Regarding `CC(O)C1NC(=O)C(N)CC(O)C(O)NC(=O)C2C(O)C(C)CN2C(=O)C(C(O)CC(N)=O)NC(=O)C(C(O)C(O)c2ccc(O)c(OS(=O)(=O)O)c2)NC(=O)C2CC(O)CN2C1=O` (single isomer, unassigned) [Comparative Example 5], the “Content of impurities in the initial sample” value was found to be 2.1% and the “0-8° C., content of impurities in the sample at 7 day” value (shortened to “0-8° C., content of impurities”) came to 3.6%.

As for `CC(O)C1NC(=O)C(N)CC(O)C(O)NC(=O)C2C(O)C(C)CN2C(=O)C(C(O)CC(N)=O)NC(=O)C(C(O)C(O)c2ccc(O)c(OS(=O)(=O)O)c2)NC(=O)C2CC(O)CN2C1=O` (single isomer, unassigned) [Comparative Example 4], the “Content of impurities in the initial sample” value is recorded as 1.8% and the “0-8° C., content of impurities” value is reported as 2.9%.

For the compound `CC(O)C1NC(=O)C(N)CC(O)C(O)NC(=O)C2C(O)C(C)CN2C(=O)C(C(O)CC(N)=O)NC(=O)C(C(O)C(O)c2ccc(O)c(OS(=O)(=O)O)c2)NC(=O)C2CC(O)CN2C1=O` (single isomer, unassigned) [Comparative Example 6], the “Content of impurities in the initial sample” value amounted to 2.4% and the “0-8° C., content of impurities” value is listed as 4.1%.

As to `CC(O)C1NC(=O)C(N)CC(O)C(O)NC(=O)C2C(O)C(C)CN2C(=O)C(C(O)CC(N)=O)NC(=O)C(C(O)C(O)c2ccc(O)c(OS(=O)(=O)O)c2)NC(=O)C2CC(O)CN2C1=O` (single isomer, unassigned) [Comparative Example 3], the “Content of impurities in the initial sample” value is recorded as 1.9% and the “0-8° C., content of impurities” value stood at 3.2%.

With `C[C@@H](O)[C@@H]1NC(=O)[C@@H](N)C[C@@H](O)[C@@H](O)NC(=O)[C@@H]2[C@@H](O)[C@@H](C)CN2C(=O)[C@H]([C@H](O)CC(N)=O)NC(=O)[C@H]([C@H](O)[C@@H](O)c2ccc(O)c(OS(=O)(=O)O)c2)NC(=O)[C@@H]2C[C@@H](O)CN2C1=O` [Example 1], the “Content of impurities in the initial sample” value is 2.5% and the “0-8° C., content of impurities” value is 4.8%.

On to `CC(O)C1NC(=O)C(N)CC(O)C(O)NC(=O)C2C(O)C(C)CN2C(=O)C(C(O)CC(N)=O)NC(=O)C(C(O)C(O)c2ccc(O)c(OS(=O)(=O)O)c2)NC(=O)C2CC(O)CN2C1=O` (single isomer, unassigned) [Comparative Example 2], for which the “Content of impurities in the initial sample” value is 1.9% and the “0-8° C., content of impurities” value came out at 3.4%.

Consider `CC(O)C1NC(=O)C(N)CC(O)C(O)NC(=O)C2C(O)C(C)CN2C(=O)C(C(O)CC(N)=O)NC(=O)C(C(O)C(O)c2ccc(O)c(OS(=O)(=O)O)c2)NC(=O)C2CC(O)CN2C1=O` (single isomer, unassigned) [Comparative Example 7], for which the “Content of impurities in the initial sample” value is 2.4% and the “0-8° C., content of impurities” value is listed as 4.7%.
